# Test results taken from US20220235057A1, “CYCLIC FORMYL AND CYCLIC KETONE COMPOUNDS, PREPARATION METHOD THEREFOR, AND PHARMACEUTICAL USE” (priority 2019, published 2022).
# Key:
# Format in all cases: cell-based
# dengue virus (DENV) = test: anti-dengue virus activity (EC50)
# [1] = tested on: drug resistant strains of Acinetobacter baumannii; test: anti-drug resistant strains of Acinetobacter baumannii (MIC)
# Zika virus (ZIKV) = test: anti-Zika virus activity (inhibition rate); conditions: for inhibition at 11 µM / inhibition at 33 µM: Zika virus
# Usutu virus (USUV) = test: anti-Usutu virus activity (inhibition rate); conditions: for inhibition at 11 µM / inhibition at 33 µM: Usutu virus
# [2] = resistant strain of Acinetobacter baumannii no. 17
# [3] = resistant strain of Acinetobacter baumannii no. 18
# [4] = resistant strain of Acinetobacter baumannii no. 19
# [5] = resistant strain of Acinetobacter baumannii no. 20
"MIC [1, 2]","MIC [1, 3]","MIC [1, 4]","MIC [1, 5]",Structure (SMILES),inhibition at 11 µM (Zika virus (ZIKV); Drug concentration 11 μM),inhibition at 33 µM (Zika virus (ZIKV); Drug concentration 33 μM),inhibition at 11 µM (Usutu virus (USUV); Drug concentration 11 μM),inhibition at 33 µM (Usutu virus (USUV); Drug concentration 33 μM),also measured
–,–,–,–,O=C1C2CCCCN2C(c2ccco2)N1c1ccc([N+](=O)[O-])cc1 (stereo not shown) [ZBJ-12A],–,–,–,–,EC50 (dengue virus (DENV)): 1.2 µM
2 µg/mL,2 µg/mL,1 µg/mL,2 µg/mL,O=C(NNc1ccc(F)cc1)[C@@H]1Cc2ccccc2N1 [ZBM-5],–,–,–,–,–
2 µg/mL,4 µg/mL,2 µg/mL,4 µg/mL,O=C(NNc1ccc(OCc2ccccc2)cc1)[C@@H]1Cc2ccccc2N1 [ZBM-6],–,–,–,–,–
2 µg/mL,4 µg/mL,2 µg/mL,4 µg/mL,Nc1ccc(NNC(=O)[C@@H]2Cc3ccccc3N2)cc1 [ZBM-8],–,–,–,–,–
1 µg/mL,2 µg/mL,1 µg/mL,1 µg/mL,O=C(NNc1ccc(F)cc1)C1CNc2ccccc21 (stereo not shown) [ZBM-11],–,–,–,–,–
2 µg/mL,2 µg/mL,2 µg/mL,1 µg/mL,O=C(NNc1ccc(F)cc1)[C@H]1CCNC1 [ZBM-19],–,–,–,–,–
0.5 µg/mL,1 µg/mL,0.5 µg/mL,0.5 µg/mL,O=C(NNc1ccc(F)cc1)c1c[nH]c2ccccc12 [ZBM-20],–,–,–,–,–
0.5 µg/mL,0.5 µg/mL,0.5 µg/mL,0.5 µg/mL,O=C(NNc1ccc(F)cc1)c1ccc[nH]1 [ZBM-21],–,–,–,–,–
–,–,–,–,O=C1[C@@H]2Cc3ccccc3N2[C@@H](c2ccc(O)cc2)N1NS(=O)(=O)c1ccc([N+](=O)[O-])cc1 [ZDL-39],< 0%,0 to 100%,< 0%,< 0%,–
–,–,–,–,CC1(C)OC[C@]2(C)C(CC[C@@]3(C)[C@H](C[C@H]4N(NS(=O)(=O)c5ccc([N+](=O)[O-])cc5)C(=O)[C@@H]5Cc6ccccc6N54)C(=O)CC[C@@H]32)O1 (stereo partly shown) [ZDL-41],–,–,–,–,Anti-ZIKV activity (inhibition rate) (Zika virus (ZIKV); Drug concentration 11 μM): +++ (+++: Complete suppression); Anti-USUV activity (inhibition rate) (Usutu virus (USUV); Drug concentration 11 μM): +++ (+++: Complete suppression)
–,–,–,–,C=C1CC[C@@H]2[C@]3(C)COC(C)(C)O[C@@H]3CC[C@@]2(C)[C@@H]1C[C@H]1N(Nc2ccc([N+](=O)[O-])cc2)C(=O)[C@@H]2Cc3ccccc3N21 [ZDL-43],> 100%,> 100%,> 100%,> 100%,–
–,–,–,–,O=C1C2CCCC2C(c2ccccc2)N1c1ccccc1 (stereo not shown) [ZDL-60],< 0%,0 to 100%,< 0%,0 to 100%,–
–,–,–,–,O=C1C2CCCC2C(c2ccccc2)N1c1ccc([N+](=O)[O-])cc1 (stereo not shown) [ZDL-61],< 0%,0 to 100%,< 0%,> 100%,–
–,–,–,–,O=C1C2CCCC2C(c2ccc(Cl)cc2)N1c1ccccc1 (stereo not shown) [ZDL-62],< 0%,0 to 100%,< 0%,> 100%,–
–,–,–,–,COc1ccc([C@H]2N(Nc3ccc([N+](=O)[O-])cc3)C(=O)[C@@H]3Cc4ccccc4N32)cc1OC [ZDL-89],–,–,–,–,EC50 (dengue virus (DENV)): 11.6 µM
–,–,–,–,COc1ccc([C@H]2N(Nc3ccc([N+](=O)[O-])cc3)C(=O)[C@@H]3Cc4ccccc4N32)cc1O[Si](C)(C)C(C)(C)C [ZDL-93],–,–,–,–,EC50 (dengue virus (DENV)): 24.8 µM
4 µg/mL,4 µg/mL,4 µg/mL,2 µg/mL,O=C(NNc1ccccc1)[C@@H]1Cc2ccccc2N1 [ZDL-101],–,–,–,–,–
8 µg/mL,8 µg/mL,8 µg/mL,4 µg/mL,O=C(NNc1ccccc1)c1c[nH]c2ccccc12 [ZFD-38],–,–,–,–,–
4 µg/mL,4 µg/mL,4 µg/mL,1 µg/mL,O=C(NNc1ccccc1)c1ccc[nH]1 [ZFD-42],–,–,–,–,–
0.5 µg/mL,1 µg/mL,1 µg/mL,1 µg/mL,O=C(NNc1ccc(F)cc1)c1cc2ccccc2[nH]1 [ZFD-44],–,–,–,–,–
–,–,–,–,O=C1[C@@H]2Cc3ccccc3CN2C(c2ccc(O)cc2)N1c1ccc([N+](=O)[O-])cc1 (stereo partly shown) [ZSD-7],–,–,–,–,Anti-ZIKV activity (inhibition rate) (Zika virus (ZIKV); Drug concentration 11 μM): − (−: Inactive); Anti-ZIKV activity (inhibition rate) (Zika virus (ZIKV); Drug concentration 33 μM): +++ (+++: Complete suppression); Anti-USUV activity (inhibition rate) (Usutu virus (USUV); Drug concentration 11 μM): − (−: Inactive); Anti-USUV activity (inhibition rate) (Usutu virus (USUV); Drug concentration 33 μM): +++ (+++: Complete suppression)
–,–,–,–,COc1cc(C2N(c3ccc([N+](=O)[O-])cc3)C(=O)[C@@H]3Cc4ccccc4CN23)ccc1O (stereo partly shown) [ZSD-8],0 to 100%,> 100%,< 0%,< 0%,–
–,–,–,–,O=C1[C@@H]2Cc3ccccc3CN2C(c2ccc(O)c(O)c2)N1c1ccc([N+](=O)[O-])cc1 (stereo partly shown) [ZSD-11],< 0%,> 100%,< 0%,0 to 100%,–
–,–,–,–,COc1ccc(C2N(c3ccc([N+](=O)[O-])cc3)C(=O)[C@@H]3Cc4ccccc4CN23)cc1OC (stereo partly shown) [ZSD-12B],< 0%,< 0%,< 0%,0 to 100%,–
